Experimental data as given in patent US7528239B1, “Receptor that binds trail” (Immunex Corporation, priority 1997, dated 2009).
Peptide text beside a SMILES is read from it. * marks the point of attachment. Cbz = O=C(OCc1ccccc1)*; CH2F = FC*

Columns and labels:
[1] = tested on: CV-1/EBNA cells expressing TRAIL-R; assay: TRAIL-R-induced death of transfected CV-1/EBNA cells (lacZ co-transfection, X-gal staining); format: cell-based, African green monkey; conditions: 48 hours after transfection
Description: CV-1/EBNA cells were transfected, by the DEAE-dextran method, with expression plasmids for TRAIL-R (pDC409-TRAIL-R), together with a threefold excess of empty expression vector (pDC409) in the presence or absence of z-VAD-fmk (10 μM; in the culture medium), or together with a threefold excess of expression vector pDC409-CrmA, pDC409-p35, or pDC409-FADD-DN. In addition, 400 ng/slide of an expression vector for the E. coli lacz gene was co-transfected together with all DNA mixes. The transfected cells were cultured in chambers mounted on slides.
48 hours after transfection, cells were washed with PBS, fixed with glutaraldehyde and incubated with X-gal (5-bromo-4-chloro-3-indoxyl-β-D-galactopyranoside). Cells expressing β-galactosidase stain blue. A decrease in the percentage of stained cells indicates loss of β-galactosidase expression, and correlates with death of cells that express the protein(s) co-transfected with the lacz gene.

[2] = molecular target: T1, full length human TRAIL-R (Homo sapiens, UniProt O14763, V191A); assay: FACS binding assay of LZ-TRAIL to CV-1/EBNA cells expressing recombinant TRAIL-R; conditions: LZ-TRAIL 5 μg/ml; cells co-transfected with TRAIL-R and CrmA vectors compared to CrmA vector alone; 48 hours after transfection
T1 construct: expressed in transfected cells; host or cells: CV-1/EBNA cells, co-transfected with pDC409-CrmA
Description: Full length human TRAIL-R was expressed and tested for the ability to bind TRAIL. The binding assay was conducted as follows.
A fusion protein comprising a leucine zipper peptide fused to the N-terminus of a soluble TRAIL polypeptide (LZ-TRAIL) was employed in the assay. An expression construct was prepared, essentially as described for preparation of the Flag®-TRAIL expression construct in Wiley et al. (Immunity, 3:673-682, 1995; hereby incorporated by reference), except that DNA encoding the Flag® peptide was replaced with a sequence encoding a modified leucine zipper that allows for trimerization. The construct, in expression vector pDC409, encoded a leader sequence derived from human cytomegalovirus, followed by the leucine zipper moiety fused to the N-terminus of a soluble TRAIL polypeptide. The TRAIL polypeptide comprised amino acids 95-281 of human TRAIL (a fragment of the extracellular domain), as described in Wiley et al. (supra). […]
CV-1/EBNA cells were co-transfected with pDC409-TRAIL-R together with pDC409-CrmA, or with pDC409-CrmA alone. […] 48 hours after transfection, cells were detached non-enzymatically and incubated with LZ-TRAIL (5 μg/ml), a biotinylated anti-LZ monoclonal antibody (5 μg/ml), and phycoerythrin-conjugated streptavidin (1:400), before analysis by fluorescence-activated cell scanning (FACS). […]

[3] = tested on: TRAIL-induced apoptosis of Jurkat cells; assay: Blocking of TRAIL-induced apoptosis of Jurkat cells (MTT cell viability assay); format: cell-based, human; conditions: LZ-TRAIL 13 ng/ml, test substance serially diluted from 10 μg/ml
Description: TRAIL-R was tested for the ability to block TRAIL-induced apoptosis of Jurkat cells. The TRAIL-R employed in the assay was in the form of a fusion protein designated sTRAIL-R/Fc, which comprised the extracellular domain of human TRAIL-R, fused to the N-terminus of an Fc polypeptide derived from human IgG1.
A fusion protein designated TNF-R2—Fc, employed as a control, comprised the extracellular domain of the TNF receptor protein known as p75 or p80 TNF-R (Smith et al., Science 248:1019-1023, 1990; Smith et al. Cell 76:959-962, 1994), fused to an Fc polypeptide. A mouse monoclonal antibody that is a blocking antibody directed against human TRAIL, was employed in the assay as well.
Jurkat cells were incubated with varying or constant concentrations of LZ-TRAIL (the LZ-TRAIL fusion protein described in example 6), in the absence or presence of varying concentrations of sTRAIL-R-Fc, TNF-R2-Fc, or the TRAIL-specific monoclonal antibody. Cell death was quantitated using an MTT cell viability assay (MTT is 3-[4,5-dimethylthiazol-2-yl]-2,5-diphenyltetrazolium bromide), as previously described (Mosmann, J. Immunol. Methods 65:55-63, 1983). […]

Molecule: COC(=O)C[C@H](NC(=O)[C@H](C)NC(=O)[C@@H](NC(=O)OCc1ccccc1)C(C)C)C(=O)CF [z-VAD-fmk, benzyloxycarbonyl-Val-Ala-Asp-fluoromethylketone, reference compound] (Cbz-Val-Ala-Asp(OMe)-CH2F)
- reduction of death of transfected cells expressing TRAIL-R ([1]; 10 μM in the culture medium): effectively reduced death

Molecule: LZ-TRAIL: leucine zipper peptide fused to the N-terminus of a soluble TRAIL polypeptide (amino acids 95-281 of human TRAIL)
- binding of LZ-TRAIL to transfected cells [2]: significantly enhanced binding

Molecule: sTRAIL-R/Fc: extracellular domain of human TRAIL-R, fused to the N-terminus of an Fc polypeptide derived from human IgG1
- blocking of TRAIL-induced apoptosis (percent cell death) [3]: blocked TRAIL-induced apoptosis in a dose dependent fashion
- blocking of TRAIL-induced apoptosis (percent cell death) ([3]; listed as soluble TRAIL-R/Fc fusion protein): blocked TRAIL-induced apoptosis

B1: baculovirus p35: 35-kilodalton protein encoded by Autographa californica nuclear polyhedrosis virus, expressed from pDC409-p35 (protein, UniProt P08160 1-299, looked up)
Early 35 kDa protein: MCVIFPVEIDVSQTIIRDCQVDKQTRELVYINKIMNTQLTKPVLMMFNISGPIRSVTRKNNNLRDRIKSKVDEQFDQLERDYSDQMDGFHDSIKYFKDEHYSVSCQNGSVLKSKFAKILKSHDYTDKKSIEAYEKYCLPKLVDERNDYYVAVCVLKPGFENGSNQVLSFEYNPIGNKVIVPFAHEINDTGLYEYDVVAYVDSVQFDGEQFEEFVQSLILPSSFKNSEKVLYYNEASKNKSMIYKALEFTTESSWGKSEKYNWKIFCNGFIYDKKSKVLYVKLHNVTSALNKNVILNTIK
- reduction of death of transfected cells expressing TRAIL-R ([1]; co-transfected, threefold excess of expression vector): effectively reduced death
